From patent US6355620B1, “C-2 modified erythromycin derivatives” (Abbott Laboratories, priority 1999, dated 2002)

Tests used:
Test in all cases: In vitro antibacterial activity, agar dilution MIC
Format in all cases: cell-based
[1] = test system: Streptococcus Pneumonia 5979; details: code ZZ, BHI agar, 35-37° C., 20 to 24 hours, unit assumed
Experimental: (§1) Representative compounds of the present invention were assayed in vitro for antibacterial activity as follows: Twelve petri dishes containing successive aqueous dilutions of the test compound mixed with 10 mL of sterilized Brain Heart Infusion (BHI) agar (Difco 0418-01-5) were prepared. Each plate was inoculated with 1:100 (or 1:10 for slow-growing strains, such as Micrococcus and Streptococcus) dilutions of up to 32 different microorganisms, using a Steers replicator block. The inoculated plates were incubated at 35-37° C. for 20 to 24 hours. In addition, a control plate, using BHI agar containing no test compound, was prepared and incubated at the beginning and end of each test.
(§2) An additional plate containing a compound having known susceptibility patterns for the organisms being tested and belonging to the same antibiotic class as the test compound was also prepared and incubated as a further control, as well as to provide test-to-test comparability.
(§3) After incubation, each plate was visually inspected. The minimum inhibitory concentration (MIC) was defined as the lowest concentration of drug yielding no growth, a slight haze, or sparsely isolated colonies on the inoculum spot as compared to the growth control.

Candida albicans CCH 442 = details: code TT, BHI agar, 35-37° C., 20 to 24 hours, unit assumed
Experimental: as §1, §2, §3

[2] = test system: Staphylococcus aureus 1775; details: code GG, BHI agar, 35-37° C., 20 to 24 hours, unit assumed
Experimental: as §1, §2, §3

[3] = test system: Streptococcus Pneumonia GYR 1171; details: code YY, BHI agar, 35-37° C., 20 to 24 hours, unit assumed
Experimental: as §1, §2, §3

[4] = test system: Streptococcus pyogenes 930; details: code MM, BHI agar, 35-37° C., 20 to 24 hours, unit assumed
Experimental: as §1, §2, §3

[5] = test system: Streptococcus Pneumonia ATCC 6303; details: code XX, BHI agar, 35-37° C., 20 to 24 hours, unit assumed
Experimental: as §1, §2, §3

[6] = test system: Streptococcus pyogenes EES61; details: code LL, BHI agar, 35-37° C., 20 to 24 hours, unit assumed
Experimental: as §1, §2, §3

[7] = test system: Enterococcusfaecium ATCC X043; details: code II, BHI agar, 35-37° C., 20 to 24 hours, unit assumed
Experimental: as §1, §2, §3

[8] = test system: Staphylococcus aureus ATCC 6538P; details: code AA, BHI agar, 35-37° C., 20 to 24 hours, unit assumed
Experimental: as §1, §2, §3

[9] = test system: Staphylococcus epidermidis 3519; details: code HH, BHI agar, 35-37° C., 20 to 24 hours, unit assumed
Experimental: as §1, §2, §3

[10] = test system: Staphylococcus aureus NCTC 10649M; details: code EE, BHI agar, 35-37° C., 20 to 24 hours, unit assumed
Experimental: as §1, §2, §3

[11] = test system: Streptococcus agalactiae CMX 508; details: code KK, BHI agar, 35-37° C., 20 to 24 hours, unit assumed
Experimental: as §1, §2, §3

[12] = test system: Micrococcusluteus ATCC 4698; details: code PP, BHI agar, 35-37° C., 20 to 24 hours, unit assumed
Experimental: as §1, §2, §3

[13] = test system: Staphylococcus aureus CMX 553; details: code FF, BHI agar, 35-37° C., 20 to 24 hours, unit assumed
Experimental: as §1, §2, §3

[14] = test system: Staphylococcus aureus CMX 642A; details: code DD, BHI agar, 35-37° C., 20 to 24 hours, unit assumed
Experimental: as §1, §2, §3

[15] = test system: Mycobacterium smegmatis ATCC 114; details: code UU, BHI agar, 35-37° C., 20 to 24 hours, unit assumed
Experimental: as §1, §2, §3

Escherichiacoli JUHL = details: code QQ, BHI agar, 35-37° C., 20 to 24 hours, unit assumed
Experimental: as §1, §2, §3

[16] = test system: Micrococcusluteus ATCC 9341; details: code OO, BHI agar, 35-37° C., 20 to 24 hours, unit assumed
Experimental: as §1, §2, §3

[17] = test system: Nocardia Asteroides ATCC 99700; details: code VV, BHI agar, 35-37° C., 20 to 24 hours, unit assumed
Experimental: as §1, §2, §3

Escherichiacoli DC-2 = details: code SS, BHI agar, 35-37° C., 20 to 24 hours, unit assumed
Experimental: as §1, §2, §3

Escherichiacoli SS = details: code RR, BHI agar, 35-37° C., 20 to 24 hours, unit assumed
Experimental: as §1, §2, §3

[18] = test system: Streptococcus Pneumonia 5649; details: code ZZA, BHI agar, 35-37° C., 20 to 24 hours, unit assumed
Experimental: as §1, §2, §3

[19] = test system: Streptococcus bovis A-5169; details: code JJ, BHI agar, 35-37° C., 20 to 24 hours, unit assumed
Experimental: as §1, §2, §3

[20] = test system: Staphylococcus aureus A-5278; details: code CC, BHI agar, 35-37° C., 20 to 24 hours, unit assumed
Experimental: as §1, §2, §3

[21] = test system: Haemophilislnfluenzae DILL AMP R; details: code WW, BHI agar, 35-37° C., 20 to 24 hours, unit assumed
Experimental: as §1, §2, §3

[22] = test system: Streptococcus pyogenes PIU 2548; details: code NN, BHI agar, 35-37° C., 20 to 24 hours, unit assumed
Experimental: as §1, §2, §3

[23] = test system: Staphylococcus aureus A-5177; details: code BB, BHI agar, 35-37° C., 20 to 24 hours, unit assumed
Experimental: as §1, §2, §3

For `C#CCOC1(C)CC(C)C(=O)C(C)C2NC(=O)OC2(C)C(CC)OC(=O)C(C)(CC=Cc2ccccc2)C(=O)C(C)C1OC1OC(C)CC(N(C)C)C1O` (stereo not drawn) [Example 9, Compound of formula (II): R^a is —CH2C═CH, R^b is H, Y and Z together are O, T is —NH—, R is —CH2CH═CH-(phenyl)], the Antibacterial Activity (MIC) [1] was 64 µg/mL, the Antibacterial Activity (MIC) (Candida albicans CCH 442) was > 100 µg/mL and the Antibacterial Activity (MIC) [2] was > 100 µg/mL. It also gave an Antibacterial Activity (MIC) [3] of 1 µg/mL, an Antibacterial Activity (MIC) [4] of 50 µg/mL and an Antibacterial Activity (MIC) [5] of 1 µg/mL. It also gave an Antibacterial Activity (MIC) [6] of 1.56 µg/mL, an Antibacterial Activity (MIC) [7] of 3.1 µg/mL and an Antibacterial Activity (MIC) [8] of 3.1 µg/mL. For the same compound, the Antibacterial Activity (MIC) [9] was 6.2 µg/mL, the Antibacterial Activity (MIC) [10] was 12.5 µg/mL and the Antibacterial Activity (MIC) [11] was 1.56 µg/mL. The Antibacterial Activity (MIC) [12] was 3.1 µg/mL, the Antibacterial Activity (MIC) [13] was 3.1 µg/mL and the Antibacterial Activity (MIC) [14] was 3.1 µg/mL. For the same compound, the Antibacterial Activity (MIC) [15] was 12.5 µg/mL, the Antibacterial Activity (MIC) (Escherichiacoli JUHL) was > 100 µg/mL and the Antibacterial Activity (MIC) [16] was 1.56 µg/mL. The Antibacterial Activity (MIC) [17] was 1.56 µg/mL, the Antibacterial Activity (MIC) (Escherichiacoli DC-2) was > 100 µg/mL and the Antibacterial Activity (MIC) (Escherichiacoli SS) was 6.2 µg/mL. For the same compound, the Antibacterial Activity (MIC) [18] was 8 µg/mL, the Antibacterial Activity (MIC) [19] was 0.78 µg/mL and the Antibacterial Activity (MIC) [20] was > 100 µg/mL. The Antibacterial Activity (MIC) [21] was > 64 µg/mL, the Antibacterial Activity (MIC) [22] was 3.1 µg/mL and the Antibacterial Activity (MIC) [23] was 3.1 µg/mL.
